Data: patent publication US20260232636A1, “INHIBITORS OF LRRK2” (Vanderbilt University, priority 2023, published 2026)

What was measured:
LRRK2 WT [1] = molecular target: T1, LRRK2 WT (Homo sapiens, UniProt Q5S007); assay: Biochemical LRRK2 LanthaScreen TR-FRET kinase assay, wild type
LRRK2 WT [2] = molecular target: T1, LRRK2 WT; assay: Cellular phospho-LRRK2 S935 HTRF assay, WT-HEK293 cells; type: cell-based; conditions: pS935 LRRK2 Cellular Activity Assay; HEK293 cells stably expressing human LRRK2 WT, 2 hr incubation
From the text: This method utilizes two antibodies, europium-Cryptate (donor) antibody and d2-Cryptate (acceptor) antibody, specifically binding to total and phospho S935 of LRRK2, respectively. When two fluorophores are in close proximity, i.e. activation of kinase, time-resolved fluorescence energy transfer (TR-FRET) occurs where a light source excites europium donor, the 615 nm emission by europium then excites d2 acceptor. […] All cell culture reagents were purchased from Life Technologies, and phospho-LRRK2 S935 assay reagents were from Perkin Elmer (#6FLRKPEH). Briefly, the day before the assay, the cells (5,000 cells/20 μL/well) are prepared in the plating medium (growth medium without G418). […] The activities of inhibitors at WT and GS mutant are measured in separate cell plates.
For full enzyme control and maximum enzyme inhibition wells, 600 nL of DMSO and 0.2 mM MLi-2 were transferred, respectively. The final 2× compound plate is prepared by adding 60 μL of plating medium to each well. […] Compounds are incubated for 2 hrs in 37° C. humidified incubators.
During compound incubation, 4× lysis buffer and 100× blocking buffer are diluted to 1× with H2O. After 2 hr incubation, treatment medium is removed using an ELx405 Microplate washer (Agilent), and 16 μL of lysis/blocking buffer is immediately added to each well in entire plates. The plates are sealed with a plate seal, and placed on a plate shaker for 30 min at room temperature with shaking at 200 rpm.
During the lysis step, 1× antibody working solutions are prepared by diluting 40× Eu-Cryptate antibody and d2-antibody in detection buffer. After the cell plates are spun at 100×g for 1 min, 4 μL of antibody solutions is added to each well in entire plates. The plates are sealed with a plate seal, and placed on a plate shaker for 4 hrs at room temperature with shaking at 200 rpm.

T1 sequence (Q5S007 whole entry): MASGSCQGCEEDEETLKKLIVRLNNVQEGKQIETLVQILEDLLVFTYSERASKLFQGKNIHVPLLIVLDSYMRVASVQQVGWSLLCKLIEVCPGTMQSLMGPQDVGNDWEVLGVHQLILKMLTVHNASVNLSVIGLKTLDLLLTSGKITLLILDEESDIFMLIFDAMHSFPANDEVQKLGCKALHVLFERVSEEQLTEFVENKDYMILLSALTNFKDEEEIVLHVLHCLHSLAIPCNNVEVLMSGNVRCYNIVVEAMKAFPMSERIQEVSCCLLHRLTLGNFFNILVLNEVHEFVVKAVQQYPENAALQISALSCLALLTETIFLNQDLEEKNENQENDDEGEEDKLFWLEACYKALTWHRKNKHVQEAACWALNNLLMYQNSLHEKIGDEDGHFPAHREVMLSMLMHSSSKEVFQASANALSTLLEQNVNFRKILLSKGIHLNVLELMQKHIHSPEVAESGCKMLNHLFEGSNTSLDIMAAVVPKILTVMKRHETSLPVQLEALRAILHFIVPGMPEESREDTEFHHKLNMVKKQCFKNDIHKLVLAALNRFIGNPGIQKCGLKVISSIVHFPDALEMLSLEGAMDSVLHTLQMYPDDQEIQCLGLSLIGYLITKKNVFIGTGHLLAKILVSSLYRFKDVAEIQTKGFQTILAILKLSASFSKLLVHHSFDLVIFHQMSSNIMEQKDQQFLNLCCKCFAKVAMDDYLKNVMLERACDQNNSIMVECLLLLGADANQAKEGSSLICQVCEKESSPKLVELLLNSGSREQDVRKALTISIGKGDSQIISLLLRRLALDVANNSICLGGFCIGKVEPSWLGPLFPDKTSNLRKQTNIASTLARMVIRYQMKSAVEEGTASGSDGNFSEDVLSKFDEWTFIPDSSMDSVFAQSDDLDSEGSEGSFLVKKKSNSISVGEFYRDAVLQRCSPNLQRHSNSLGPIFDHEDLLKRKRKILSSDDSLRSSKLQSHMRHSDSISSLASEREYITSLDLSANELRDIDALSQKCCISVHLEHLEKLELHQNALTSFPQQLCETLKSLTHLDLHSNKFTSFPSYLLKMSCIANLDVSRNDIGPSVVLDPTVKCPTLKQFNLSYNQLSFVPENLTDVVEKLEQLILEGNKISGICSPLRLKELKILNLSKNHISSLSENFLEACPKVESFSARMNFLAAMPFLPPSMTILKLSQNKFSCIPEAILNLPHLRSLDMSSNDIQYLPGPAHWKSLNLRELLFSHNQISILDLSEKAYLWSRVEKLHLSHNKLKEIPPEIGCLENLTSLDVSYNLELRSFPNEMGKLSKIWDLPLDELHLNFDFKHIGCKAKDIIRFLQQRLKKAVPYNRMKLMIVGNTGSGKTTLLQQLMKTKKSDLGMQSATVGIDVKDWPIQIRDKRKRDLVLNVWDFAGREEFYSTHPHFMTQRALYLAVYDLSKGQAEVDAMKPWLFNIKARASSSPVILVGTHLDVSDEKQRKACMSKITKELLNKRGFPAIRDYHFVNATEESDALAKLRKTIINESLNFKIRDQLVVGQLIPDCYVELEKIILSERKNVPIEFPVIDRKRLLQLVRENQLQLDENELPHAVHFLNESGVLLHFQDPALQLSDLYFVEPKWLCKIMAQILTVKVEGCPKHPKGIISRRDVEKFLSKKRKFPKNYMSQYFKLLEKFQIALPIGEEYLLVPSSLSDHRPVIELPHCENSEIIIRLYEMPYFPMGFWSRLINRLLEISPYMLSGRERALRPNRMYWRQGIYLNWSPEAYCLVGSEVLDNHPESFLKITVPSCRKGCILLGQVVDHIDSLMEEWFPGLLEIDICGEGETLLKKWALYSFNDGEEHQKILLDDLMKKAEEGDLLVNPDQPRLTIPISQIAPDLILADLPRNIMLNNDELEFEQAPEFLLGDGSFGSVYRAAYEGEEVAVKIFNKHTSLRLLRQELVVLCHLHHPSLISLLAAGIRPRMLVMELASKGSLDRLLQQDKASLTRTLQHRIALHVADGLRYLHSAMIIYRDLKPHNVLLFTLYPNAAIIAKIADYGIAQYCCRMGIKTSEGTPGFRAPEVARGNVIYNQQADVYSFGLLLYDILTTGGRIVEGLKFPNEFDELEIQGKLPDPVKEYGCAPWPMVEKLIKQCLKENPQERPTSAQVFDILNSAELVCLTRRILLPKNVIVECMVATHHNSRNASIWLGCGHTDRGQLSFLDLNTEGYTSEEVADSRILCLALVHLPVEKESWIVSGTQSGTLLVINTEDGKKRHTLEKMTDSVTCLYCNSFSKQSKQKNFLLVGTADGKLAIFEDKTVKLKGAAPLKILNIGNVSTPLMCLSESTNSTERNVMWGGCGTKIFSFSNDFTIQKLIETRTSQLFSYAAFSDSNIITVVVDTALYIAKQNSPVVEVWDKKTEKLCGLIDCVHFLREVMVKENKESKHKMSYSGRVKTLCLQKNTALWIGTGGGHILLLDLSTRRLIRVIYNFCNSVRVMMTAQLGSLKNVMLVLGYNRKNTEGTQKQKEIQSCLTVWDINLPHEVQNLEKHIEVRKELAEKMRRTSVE

IC50 (LRRK2 WT [1]) [nM]	IC50 (LRRK2 WT [2]) [nM]	LRRK2 WT IC50 (LRRK2 WT [2])	Structure (SMILES)
113	7580		Cc1cc2cnn(-c3cnn(C)c3)c2cc1C1=C[C@@H]2CNC[C@@H]2C1 (racemic) [Compound 1, (rac)-6-((3aR,6aS)-1,2,3,3a,4,6a-hexahydrocyclopenta[c]pyrrol-5-yl)-5-methyl-1-(1-methyl-1H-pyrazol-4-yl)-1H-indazole]
2290		inactive	Cc1cc2cnn(-c3cnn(C)c3)c2cc1C1=C[C@@H]2CN(C(=O)OC(C)(C)C)C[C@@H]2C1 (racemic) [Compound 2, (rac)-tert-butyl (3aR,6aS)-5-(5-methyl-1-(1-methyl-1H-pyrazol-4-yl)-1H-indazol-6-yl)-3,3a,4,6a-tetrahydrocyclopenta[c] pyrrole-2(1H)-carboxylate]
716	> 10000		Cc1cc2cnn(-c3cnn(C)c3)c2cc1C1=C[C@@H]2CN(C3CCOCC3)C[C@@H]2C1 (racemic) [Compound 3, (rac)-5-methyl-1-(1-methyl-1H-pyrazol-4-yl)-6-((3aR,6aS)-2-(tetrahydro-2H-pyran-4-yl)-1,2,3,3a,4,6a-hexahydrocyclopenta[c]pyrrol-5-yl)-1H-indazole]
247	4340		Cc1cc2cnn(-c3cnn(C)c3)c2cc1[C@H]1C[C@@H]2CN(C3CCCOC3)C[C@@H]2C1 (mixture of isomers) [Compound 11, (rac)-5-methyl-1-(1-methyl-1H-pyrazol-4-yl)-6-((3aR,5s,6aS)-2-(tetrahydro-2H-pyran-3-yl)octahydrocyclopenta[c]pyrrol-5-yl)-1H-indazole]
642		inactive	Cc1cc2cnn(-c3cnn(C)c3)c2cc1[C@@H]1C[C@@H]2CN(C3CCCOC3)C[C@@H]2C1 (mixture of isomers) [Compound 12, (rac)-5-methyl-1-(1-methyl-1H-pyrazol-4-yl)-6-((3aR,5r,6aS)-2-(tetrahydro-2H-pyran-3-yl)octahydrocyclopenta[c]pyrrol-5-yl)-1H-indazole]
1530		inactive	COC(=O)N1CCCC(N2C[C@H]3C[C@H](c4cc5c(cnn5-c5cnn(C)c5)cc4C)C[C@H]3C2)C1 (mixture of isomers) [Compound 18, (rac)-methyl 3-((3aR,5s,6aS)-5-(5-methyl-1-(1-methyl-1H-pyrazol-4-yl)-1H-indazol-6-yl)hexahydrocyclopenta[c]pyrrol-2(1H)-yl)piperidine-1-carboxylate]
1220		inactive	COC(=O)N1CCCC(N2C[C@H]3C[C@@H](c4cc5c(cnn5-c5cnn(C)c5)cc4C)C[C@H]3C2)C1 (mixture of isomers) [Compound 19, (rac)-methyl 3-((3aR,5r,6aS)-5-(5-methyl-1-(1-methyl-1H-pyrazol-4-yl)-1H-indazol-6-yl)hexahydrocyclopenta[c]pyrrol-2(1H)-yl)piperidine-1-carboxylate]
156	8430		Cc1cc2cnn(-c3cnn(C)c3)c2cc1[C@H]1C[C@@H]2CN(C(=O)c3snnc3C)C[C@@H]2C1 [Compound 9, (4-methyl-1,2,3-thiadiazol-5-yl)((3aR,5s,6aS)-5-(5-methyl-1-(1-methyl-1H-pyrazol-4-yl)-1H-indazol-6-yl)hexahydrocyclopenta[c]pyrrol-2(1H)-yl)methanone]
643		inactive	Cc1cc2cnn(-c3cnn(C)c3)c2cc1[C@@H]1C[C@@H]2CN(C(=O)c3snnc3C)C[C@@H]2C1 [Compound 10, (4-methyl-1,2,3-thiadiazol-5-yl)((3aR,5r,6aS)-5-(5-methyl-1-(1-methyl-1H-pyrazol-4-yl)-1H-indazol-6-yl)hexahydrocyclopenta[c]pyrrol-2(1H)-yl)methanone]
